According to patent US20120220453A1, “PESTICIDAL COMPOSTIONS AND PROCESSES RELATED THERETO” (priority 2011, published 2012):
Like-named read-outs stand apart in the source and are kept apart here.

Tests used:
Type in all cases: in vivo
[1] = tested on: Beet Armyworm (BAW) (Spodoptera exigua); assay: Bioassay on Beet Armyworm (BAW), 128-well diet tray assay; conditions: 120 h
Description: Certain molecules disclosed in this document were tested against BAW and CEW using procedures described in the following examples. In the reporting of the results, the “Table 3: BAW & CEW Rating Table” was used (See Table Section).
Bioassays on BAW (Spodoptera exigua)
Bioassays on BAW were conducted using a 128-well diet tray assay. […] Trays were covered with a clear self-adhesive cover, and held at 25° C., 14:10 light-dark for five days. Percent mortality was recorded for the larvae in each well; activity in the eight wells was then averaged. The results are indicated in the table entitled “Table 5: BAW, CEW, GPA, Scale and WF Results” (See Table Section).

[2] = tested on: Green Peach Aphid (GPA) (Myzus persicae); assay: Bioassay on Green Peach Aphid (GPA), foliar spray on cabbage seedlings; conditions: 72 h, 200 ppm foliar spray on cabbage seedlings, graded after three days, Abbott corrected % control, read-out: GPA @ 200 ppm, % Control (or Mortality) rating
Description: Certain molecules disclosed in this document were tested against GPA using procedures described in the following example. In the reporting of the results, the “Table 4: GPA, Scale and WF Rating Table” was used (See Table Section).
Cabbage seedlings grown in 3-inch pots, with 2-3 small (3-5 cm) true leaves, were used as test substrate. The seedlings were infested with 20-50 GPA (wingless adult and nymph stages) one day prior to chemical application. Four pots with individual seedlings were used for each treatment. Test compounds (2 mg) were dissolved in 2 mL of acetone/methanol (1:1) solvent, forming stock solutions of 1000 ppm test compound. The stock solutions were diluted 5× with 0.025% Tween 20 in H2O to obtain the solution at 200 ppm test compound. A hand-held aspirator-type sprayer was used for spraying a solution to both sides of […] leaves until runoff. Reference plants (solvent check) were sprayed with the diluent only containing 20% by volume of acetone/methanol (1:1) solvent. Treated plants were held in a holding room for three days at approximately 25° C. and ambient relative humidity (RH) prior to grading. Evaluation was conducted by counting the number of live aphids per plant under a microscope. Percent Control was measured by using Abbott's correction formula (W. S. Abbott, “A Method of Computing the Effectiveness of an Insecticide” J. Econ. Entomol. 18 (1925), pp. 265-267) as follows.
Corrected % Control=100*(X−Y)/X • where • X=No. of live aphids on solvent check plants and • Y=No. of live aphids on treated plants
(§1) The results are indicated in the table entitled “Table 5: BAW, CEW, GPA, Scale and WF Results” (See Table Section).

[3] = tested on: San Jose Scale (Quadraspidiotus perniciosus); assay: Bioassay on San Jose Scale, foliar spray on cotton plants; conditions: Diaspidiotus perniciosus, 216 h; 200 ppm foliar spray on cotton plants, live nymphs counted 9 days after infestation, Abbott corrected % control; read-out: Scale @ 200 ppm, % Control (or Mortality) rating
Description: Certain molecules disclosed in this document were tested against Scale using procedures described in the following example. In the reporting of the results, the “Table 4: GPA, Scale and WF Rating Table” was used (See Table Section).
Cotton plants (Gossypium hirsutum) grown in 3-inch pots, with 1 small (4-5 cm) true leaves, were used as test substrate. The plants were infested with 200-400 scale crawlers 1-2 hours after chemical application. Four pots with individual plants were used for each treatment. Test compounds (2 mg) were dissolved in 1 mL of acetone solvent, forming stock solutions of 2000 ppm test compound. The stock solutions were diluted 10× with 0.025% Tween 20 in H2O (diluents) to obtain the solution at 200 ppm test compound. A hand-held aspirator-type sprayer was used for spraying a solution to both sides of cotton leaves until runoff. Reference plants (solvent check) were sprayed with the diluent only containing 10% by volume of acetone solvent. Treated plants were held in a holding room for three days at approximately 25° C. and ambient relative humidity (RH) prior to grading. Evaluation was conducted by counting the number of live 2-3 nymphal stage per plant under a microscope 9 days after infestation. Percent Control was measured by using Abbott's correction formula (W. S. Abbott, “A Method of Computing the Effectiveness of an Insecticide” J. Econ. Entomol. 18 (1925), pp. 265-267) as follows.
Corrected % Control=100*(X−Y)/X • where • X=No. of live nymphs on solvent check plants and • Y=No. of live nymphs on treated plants
as §1

[4] = tested on: Sweet Potato Whitefly (WF) (Bemisia tabaci); assay: Bioassay on Sweet Potato Whitefly (WF), foliar spray on cotton plants; conditions: 216 h, 200 ppm foliar spray on cotton plants, graded after 9 days, Abbott corrected % control, read-out: WF @ 200 ppm, % Control (or Mortality) rating
Description: Certain molecules disclosed in this document were tested against WF using procedures described in the following example. In the reporting of the results, the “Table 4: GPA, Scale and WF Rating Table” was used (See Table Section).
Cotton plants (Gossypium hirsutum) grown in 3-inch pots, with 1 small (4-5 cm) true leaves, were used as test substrate. The plants were infested with 200-400 whitefly eggs 4-5 days prior to chemical application. Four pots with individual plants were used for each treatment. Test compounds (2 mg) were dissolved in 1 mL of acetone solvent, forming stock solutions of 2000 ppm test compound. The stock solutions were diluted 10× with 0.025% Tween 20 in H2O (diluents) to obtain the solution at 200 ppm test compound. A hand-held aspirator-type sprayer was used for spraying a solution to both sides of cotton leaves until runoff. Reference plants (solvent check) were sprayed with the diluent only containing 10% by volume of acetone solvent. Treated plants were held in a holding room for 9 days at approximately 25° C. and ambient relative humidity (RH) prior to grading. Evaluation was conducted by counting the number of live 3-4 nymphal stage per plant under a microscope. Percent Control was measured by using Abbott's correction formula (W. S. Abbott, “A Method of Computing the Effectiveness of an Insecticide” J. Econ. Entomol. 18 (1925), pp. 265-267) as follows.
Corrected % Control=100*(X−Y)/X • where • X=No. of live nymphs on solvent check plants and • Y=No. of live nymphs on treated plants.
as §1

[5] = second instar larvae on treated artificial diet, five days, 25° C., read-out: BAW, % Control (or Mortality) rating

| SMILES | mortality [1, 5] | mortality at 200 ppm [2] | mortality at 200 ppm [3] | mortality at 200 ppm [4] | mortality ([1]; read-out: BAW, % Control (or Mortality) rating) | mortality ([1]; 200 ppm, second instar larvae on treated artificial diet, five days, 25° C., read-out: BAW @ 200 ppm, % Control (or Mortality) rating) |
| --- | --- | --- | --- | --- | --- | --- |
| Cc1ccc(-c2cn(-c3cccnc3)nc2C)cn1 [Compound 26] | 50 to 100% | 80 to 100% | 80 to 100% | 80 to 100% | – | – |
| Cc1nccc(-c2cn(-c3cccnc3)nc2C)n1 [Compound 8] | 50 to 100% | 80 to 100% | 80 to 100% | – | – | – |
| Cc1ncccc1-c1cn(-c2cccnc2)nc1C [Compound 28] | 50 to 100% | 80 to 100% | 80 to 100% | 0 to 80% | – | – |
| COc1ccnc(-c2cn(-c3cccnc3)nc2C)n1 [Compound 9] | 50 to 100% | 80 to 100% | 80 to 100% | – | – | – |
| COc1cccc(-c2cn(-c3cccnc3)nc2C)n1 [Compound 19] | 50 to 100% | 80 to 100% | 80 to 100% | 0 to 80% | – | – |
| Cc1cncc(-c2cn(-c3cccnc3)nc2C)c1 [Compound 27] | 50 to 100% | 80 to 100% | 0 to 80% | 80 to 100% | – | – |
| Cc1nn(-c2cccnc2)cc1-c1cccc(C(F)(F)F)n1 [Compound 4] | 50 to 100% | 80 to 100% | 80 to 100% | – | – | – |
| Cc1cc(-c2cn(-c3cccnc3)nc2C)ccn1 [Compound 30] | 50 to 100% | 80 to 100% | 0 to 80% | 0 to 80% | – | – |
| CSc1nc(-c2cn(-c3cccnc3)nc2C)cc(C(F)(F)F)n1 [Compound 13] | 50 to 100% | 0 to 80% | 0 to 80% | – | – | – |
| Cc1nn(-c2cccnc2)cc1-c1cc(C(F)(F)F)ccn1 [Compound 22] | 50 to 100% | 80 to 100% | 80 to 100% | 80 to 100% | – | – |
| FC(F)(F)c1ccc(-c2cnn(-c3cccnc3)c2)cn1 [Compound 2, 5-(1-(pyridin-3-yl)-1H-pyrazol-4-yl)-2-(trifluoromethyl)pyridine] | 50 to 100% | 80 to 100% | 0% | – | – | – |
| Fc1cncc(-n2cc(-c3cccc(C(F)(F)F)n3)c(Cl)n2)c1 [Compound 7] | 50 to 100% | 80 to 100% | 80 to 100% | – | – | – |
| Cc1nn(-c2cccnc2)cc1-c1ccnc(C(F)(F)F)n1 [Compound 5] | 50 to 100% | 80 to 100% | 80 to 100% | – | – | – |
| Cc1nn(-c2cccnc2)cc1-c1ccc(C(F)(F)F)cn1 [Compound 21] | 50 to 100% | 80 to 100% | 80 to 100% | 80 to 100% | – | – |
| FC(F)(F)c1cccc(-c2cnn(-c3cccnc3)c2)n1 [Compound 1, 2-(1-(pyridin-3-yl)-1H-pyrazol-4-yl)-6-(trifluoromethyl)pyridine] | – | 80 to 100% | 80 to 100% | 0 to 80% | 50 to 100% | – |
| Cc1nn(-c2cccnc2)cc1-c1cc(C(F)(F)F)ncn1 [Compound 10] | 50 to 100% | 80 to 100% | 80 to 100% | – | – | – |
| COc1ccc(-c2cn(-c3cccnc3)nc2C)cn1 [Compound 25] | 50 to 100% | 80 to 100% | 80 to 100% | 0 to 80% | – | – |
| Cc1nn(-c2cncc(F)c2)cc1-c1cccc(C(F)(F)F)n1 [Compound 3, 2-(1-(5-fluoropyridin-3-yl)-3-methyl-1H-pyrazol-4-yl)-6-(trifluoromethyl)pyridine] | 50 to 100% | 80 to 100% | 80 to 100% | – | – | – |
| CSc1cccc(-c2cn(-c3cccnc3)nc2C)c1 [Compound 17, 3-(3-methyl-4-(3-(methylthio)phenyl)-1H-pyrazol-1-yl)pyridine] | 50 to 100% | 80 to 100% | 0 to 80% | 0% | – | – |
| Cc1nn(-c2cccnc2)cc1-c1cccnc1 [Compound 23] | 50 to 100% | 80 to 100% | 80 to 100% | 0 to 80% | – | – |
| COc1cc(-c2cn(-c3cccnc3)nc2C)ncn1 [Compound 11] | – | 80 to 100% | 0 to 80% | – | – | 50 to 100% |
| Cc1nn(-c2cccnc2)cc1-c1ccc(C(F)(F)F)nc1 [Compound 29] | 50 to 100% | 80 to 100% | 80 to 100% | 80 to 100% | – | – |
| COc1cc(-c2cn(-c3cccnc3)nc2C)nc(OC)n1 [Compound 12] | 50 to 100% | 80 to 100% | 0 to 80% | – | – | – |
